In ChEMBL document CHEMBL1201862, “PubChem BioAssay data set” (2004):
The source made the active and inactive calls.

Key:
[1] = molecular target: T1, Calpain-2 catalytic subunit (Sus scrofa, UniProt P43367); assay: pig calpain II inhibitor potency, dose response, biochemical, fluorogenic peptide substrate (AID 1420); format: functional
T1 sequence (P43367 whole entry): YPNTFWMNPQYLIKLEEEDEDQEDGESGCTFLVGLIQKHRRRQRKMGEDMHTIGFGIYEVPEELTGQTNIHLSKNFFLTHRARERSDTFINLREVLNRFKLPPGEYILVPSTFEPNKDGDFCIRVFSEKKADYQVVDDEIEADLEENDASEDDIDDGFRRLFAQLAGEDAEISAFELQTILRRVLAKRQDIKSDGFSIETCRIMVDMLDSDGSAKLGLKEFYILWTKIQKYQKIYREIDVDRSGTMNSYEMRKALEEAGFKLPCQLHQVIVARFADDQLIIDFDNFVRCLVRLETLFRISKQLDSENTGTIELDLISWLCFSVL

[2] = molecular target: T2, Heat shock factor protein 1 (Mus musculus, UniProt P38532); assay: HSF1 potentiators in luciferase reporter cells, confirmation, cell-based, NIH3T3, luminescence, dose retest (AID 435004); format: functional;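 note: stress induced by proteasome inhibitor MG132 added 30 min after compound; luciferase reporter driven by HSF1 response element in NIH3T3 cells; actives raise luminescence as potentiators of the MG132 stress response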
T2 sequence (P38532 whole entry): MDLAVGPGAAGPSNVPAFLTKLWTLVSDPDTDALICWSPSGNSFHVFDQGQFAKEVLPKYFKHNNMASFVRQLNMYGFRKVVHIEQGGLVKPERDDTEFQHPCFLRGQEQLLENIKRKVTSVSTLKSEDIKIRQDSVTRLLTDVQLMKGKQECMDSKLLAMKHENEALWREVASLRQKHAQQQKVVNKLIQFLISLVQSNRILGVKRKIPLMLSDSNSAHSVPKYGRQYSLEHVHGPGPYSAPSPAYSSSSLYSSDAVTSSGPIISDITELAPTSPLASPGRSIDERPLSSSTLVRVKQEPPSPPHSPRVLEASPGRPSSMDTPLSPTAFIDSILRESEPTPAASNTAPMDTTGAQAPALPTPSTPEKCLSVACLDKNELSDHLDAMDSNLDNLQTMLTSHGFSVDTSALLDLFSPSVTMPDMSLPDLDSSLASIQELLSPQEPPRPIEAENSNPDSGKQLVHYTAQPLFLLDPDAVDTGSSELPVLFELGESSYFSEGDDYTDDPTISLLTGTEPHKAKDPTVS

[3] = Luminescence Cell-Based Dose Response HTS to Identify Activators of Luciferase Translation or Activity in H4 […] Cells. [Related pubchem assays: 1829 (Project Summary), 1814 (Primary HTS)]; format: functional
[4] = molecular target: T3, Corticotropin-releasing factor receptor 2/Corticotropin-releasing factor-binding protein (Homo sapiens, UniProt P24387+Q13324); assay: activators of CRF receptor 2 with binding protein – uHTS hits, confirmation (AID 602473); format: functional; details: read-out: EC50_Mean
T3 sequence (Q13324 whole entry): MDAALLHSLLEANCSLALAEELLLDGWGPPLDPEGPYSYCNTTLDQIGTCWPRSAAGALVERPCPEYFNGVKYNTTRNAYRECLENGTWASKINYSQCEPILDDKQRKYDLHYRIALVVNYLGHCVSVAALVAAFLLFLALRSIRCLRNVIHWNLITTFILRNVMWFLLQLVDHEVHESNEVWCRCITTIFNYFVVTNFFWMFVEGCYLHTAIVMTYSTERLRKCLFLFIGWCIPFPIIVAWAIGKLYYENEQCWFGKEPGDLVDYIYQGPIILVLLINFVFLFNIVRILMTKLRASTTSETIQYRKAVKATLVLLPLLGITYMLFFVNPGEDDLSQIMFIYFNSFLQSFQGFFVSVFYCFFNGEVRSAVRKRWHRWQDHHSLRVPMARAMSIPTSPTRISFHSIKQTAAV
T3 sequence (P24387 whole entry): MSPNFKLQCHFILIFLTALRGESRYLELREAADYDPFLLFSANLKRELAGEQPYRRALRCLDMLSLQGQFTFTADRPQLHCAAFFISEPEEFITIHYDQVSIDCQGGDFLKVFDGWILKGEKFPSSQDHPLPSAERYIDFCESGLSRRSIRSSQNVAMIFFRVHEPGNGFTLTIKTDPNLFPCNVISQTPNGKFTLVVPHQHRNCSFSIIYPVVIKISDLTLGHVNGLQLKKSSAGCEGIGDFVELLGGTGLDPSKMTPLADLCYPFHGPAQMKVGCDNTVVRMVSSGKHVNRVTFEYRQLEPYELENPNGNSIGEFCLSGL

[5] = molecular target: T3, Corticotropin-releasing factor receptor 2/Corticotropin-releasing factor-binding protein; assay: Dose Response confirmation of uHTS hits for small molecule antagonists of the CRF-binding protein and CRF-R2 receptor complex.; format: functional; details: read-out: IC50_Mean
[6] = molecular target: Large T antigen (Simian virus 40, UniProt P03070); format: functional, Betapolyomavirus macacae;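 note: Confirmatory-stage PubChem screen for compounds that inhibit SV40 T antigen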
[7] = molecular target: T4, Rac GTPase-activating protein 1 (Homo sapiens, UniProt Q9H0H5); assay: MgcRacGAP GTPase-activating activity inhibitors, confirmation, biochemical, ADP Hunter fluorescence, primary and confirmatory (AID 624330); format: functional
T4 sequence (Q9H0H5 whole entry): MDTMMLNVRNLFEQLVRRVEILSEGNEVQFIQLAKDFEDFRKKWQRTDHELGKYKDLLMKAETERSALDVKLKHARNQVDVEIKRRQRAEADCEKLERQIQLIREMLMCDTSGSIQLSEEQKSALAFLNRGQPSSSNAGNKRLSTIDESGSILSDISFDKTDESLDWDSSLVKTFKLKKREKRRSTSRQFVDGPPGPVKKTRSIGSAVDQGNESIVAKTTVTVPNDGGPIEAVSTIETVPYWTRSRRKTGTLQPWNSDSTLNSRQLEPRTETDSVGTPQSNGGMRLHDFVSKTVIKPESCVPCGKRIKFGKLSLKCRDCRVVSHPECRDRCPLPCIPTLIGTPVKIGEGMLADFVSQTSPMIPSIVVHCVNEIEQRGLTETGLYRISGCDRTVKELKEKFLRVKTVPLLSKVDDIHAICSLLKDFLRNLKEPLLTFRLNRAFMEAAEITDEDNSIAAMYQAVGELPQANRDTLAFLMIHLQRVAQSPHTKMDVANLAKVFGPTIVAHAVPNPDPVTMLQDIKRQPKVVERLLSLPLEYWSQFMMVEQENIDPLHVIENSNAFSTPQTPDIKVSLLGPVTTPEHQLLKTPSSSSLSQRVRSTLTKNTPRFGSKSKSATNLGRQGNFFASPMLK

[8] = Shn3 3'UTR reporter inhibitors, dose response, cell-based, Clone20 osteoblasts, firefly luciferase, cherry-picked (AID 624132); format: functional;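 note: firefly luciferase luminescence from reporter carrying the Shn3 3'UTR in osteoblasts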
[9] = control 3'UTR Renilla luciferase suppression, dose response, counter-screen for Shn3 inhibitor project, cell-based, Clone20-Shn3RL, cherry-picked (AID 624133); format: functional
[10] = cytotoxicity toward NIH3T3 fibroblasts, dose response, counter-screen, cell-based, ATP luminescence, mouse fibroblasts (AID 2010); format: functional;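 note: cells exposed to compound for about 90 hours before reading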
[11] = inhibitors of intracellular T. cruzi replication, confirmation, NIH3T3 host cells, beta-gal luminescence (AID 2044); format: functional, cell-based;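 note: intracellular parasites grown in NIH/3T3 mouse fibroblasts as host cells; luminescent beta-galactosidase reporter signal from transgenic T. cruzi replicating inside host cells; inhibitors lower the luminescence signal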
[12] = molecular target: T5, Fatty acid synthase (Homo sapiens, UniProt P49327); assay: FAS thioesterase domain inhibitors, dose response, biochemical, endpoint fluorescence intensity, uHTS hits (AID 624327); format: functional;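 note: fluorescence from hydrolysis of an O-methyl fluorescein acyl ester substrate by the enzyme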
[13] = molecular target: T5, Fatty acid synthase; assay: FAS thioesterase domain inhibitors, dose response, biochemical, kinetic fluorescence intensity (AID 624326); format: functional;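 note: rate of fluorescence rise from hydrolysis of a fluorogenic O-methyl fluorescein ester substrate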
[14] = Luminescence Cell-Based Dose Retest to Confirm Inhibitors of Cancer Stem Cells. [Related pubchem assays (depositor defined):AID2717, AID2721]; format: functional; details: Homo sapiens
[15] = molecular target: FAD-linked sulfhydryl oxidase ALR (Homo sapiens, UniProt P55789); assay: inhibitors of human ALR sulfhydryl oxidase, dose response, biochemical, H2O2 detection, luminescence, cherry-pick (AID 493248)
Chain of FAD-linked sulfhydryl oxidase ALR (P55789 whole entry): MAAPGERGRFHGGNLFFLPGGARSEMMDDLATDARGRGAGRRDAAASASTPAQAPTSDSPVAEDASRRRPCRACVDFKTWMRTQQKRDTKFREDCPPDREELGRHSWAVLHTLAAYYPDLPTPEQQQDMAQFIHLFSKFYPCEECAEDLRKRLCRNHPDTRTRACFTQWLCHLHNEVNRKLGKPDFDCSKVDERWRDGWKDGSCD

Chain of Large T antigen (P03070 whole entry): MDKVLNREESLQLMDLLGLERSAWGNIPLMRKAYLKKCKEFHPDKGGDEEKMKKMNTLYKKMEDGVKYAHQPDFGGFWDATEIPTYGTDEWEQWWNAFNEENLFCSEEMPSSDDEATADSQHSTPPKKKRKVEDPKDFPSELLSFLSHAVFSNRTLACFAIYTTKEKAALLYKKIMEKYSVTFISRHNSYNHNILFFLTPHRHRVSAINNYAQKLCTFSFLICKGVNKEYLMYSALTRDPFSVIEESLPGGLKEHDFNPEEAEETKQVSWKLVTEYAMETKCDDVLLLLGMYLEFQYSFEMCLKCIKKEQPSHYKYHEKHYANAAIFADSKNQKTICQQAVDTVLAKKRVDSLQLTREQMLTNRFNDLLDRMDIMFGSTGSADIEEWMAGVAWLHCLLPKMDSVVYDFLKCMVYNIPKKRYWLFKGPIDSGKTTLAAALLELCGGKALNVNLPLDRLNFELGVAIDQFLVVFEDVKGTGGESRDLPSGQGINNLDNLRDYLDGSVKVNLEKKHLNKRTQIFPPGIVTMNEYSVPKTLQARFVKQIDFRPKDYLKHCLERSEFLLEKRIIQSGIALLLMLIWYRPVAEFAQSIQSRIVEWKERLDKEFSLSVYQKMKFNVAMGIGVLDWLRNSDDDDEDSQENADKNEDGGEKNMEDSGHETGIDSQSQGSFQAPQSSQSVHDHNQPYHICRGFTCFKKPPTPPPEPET
T5 sequence (P49327 whole entry, the tested form may be a part): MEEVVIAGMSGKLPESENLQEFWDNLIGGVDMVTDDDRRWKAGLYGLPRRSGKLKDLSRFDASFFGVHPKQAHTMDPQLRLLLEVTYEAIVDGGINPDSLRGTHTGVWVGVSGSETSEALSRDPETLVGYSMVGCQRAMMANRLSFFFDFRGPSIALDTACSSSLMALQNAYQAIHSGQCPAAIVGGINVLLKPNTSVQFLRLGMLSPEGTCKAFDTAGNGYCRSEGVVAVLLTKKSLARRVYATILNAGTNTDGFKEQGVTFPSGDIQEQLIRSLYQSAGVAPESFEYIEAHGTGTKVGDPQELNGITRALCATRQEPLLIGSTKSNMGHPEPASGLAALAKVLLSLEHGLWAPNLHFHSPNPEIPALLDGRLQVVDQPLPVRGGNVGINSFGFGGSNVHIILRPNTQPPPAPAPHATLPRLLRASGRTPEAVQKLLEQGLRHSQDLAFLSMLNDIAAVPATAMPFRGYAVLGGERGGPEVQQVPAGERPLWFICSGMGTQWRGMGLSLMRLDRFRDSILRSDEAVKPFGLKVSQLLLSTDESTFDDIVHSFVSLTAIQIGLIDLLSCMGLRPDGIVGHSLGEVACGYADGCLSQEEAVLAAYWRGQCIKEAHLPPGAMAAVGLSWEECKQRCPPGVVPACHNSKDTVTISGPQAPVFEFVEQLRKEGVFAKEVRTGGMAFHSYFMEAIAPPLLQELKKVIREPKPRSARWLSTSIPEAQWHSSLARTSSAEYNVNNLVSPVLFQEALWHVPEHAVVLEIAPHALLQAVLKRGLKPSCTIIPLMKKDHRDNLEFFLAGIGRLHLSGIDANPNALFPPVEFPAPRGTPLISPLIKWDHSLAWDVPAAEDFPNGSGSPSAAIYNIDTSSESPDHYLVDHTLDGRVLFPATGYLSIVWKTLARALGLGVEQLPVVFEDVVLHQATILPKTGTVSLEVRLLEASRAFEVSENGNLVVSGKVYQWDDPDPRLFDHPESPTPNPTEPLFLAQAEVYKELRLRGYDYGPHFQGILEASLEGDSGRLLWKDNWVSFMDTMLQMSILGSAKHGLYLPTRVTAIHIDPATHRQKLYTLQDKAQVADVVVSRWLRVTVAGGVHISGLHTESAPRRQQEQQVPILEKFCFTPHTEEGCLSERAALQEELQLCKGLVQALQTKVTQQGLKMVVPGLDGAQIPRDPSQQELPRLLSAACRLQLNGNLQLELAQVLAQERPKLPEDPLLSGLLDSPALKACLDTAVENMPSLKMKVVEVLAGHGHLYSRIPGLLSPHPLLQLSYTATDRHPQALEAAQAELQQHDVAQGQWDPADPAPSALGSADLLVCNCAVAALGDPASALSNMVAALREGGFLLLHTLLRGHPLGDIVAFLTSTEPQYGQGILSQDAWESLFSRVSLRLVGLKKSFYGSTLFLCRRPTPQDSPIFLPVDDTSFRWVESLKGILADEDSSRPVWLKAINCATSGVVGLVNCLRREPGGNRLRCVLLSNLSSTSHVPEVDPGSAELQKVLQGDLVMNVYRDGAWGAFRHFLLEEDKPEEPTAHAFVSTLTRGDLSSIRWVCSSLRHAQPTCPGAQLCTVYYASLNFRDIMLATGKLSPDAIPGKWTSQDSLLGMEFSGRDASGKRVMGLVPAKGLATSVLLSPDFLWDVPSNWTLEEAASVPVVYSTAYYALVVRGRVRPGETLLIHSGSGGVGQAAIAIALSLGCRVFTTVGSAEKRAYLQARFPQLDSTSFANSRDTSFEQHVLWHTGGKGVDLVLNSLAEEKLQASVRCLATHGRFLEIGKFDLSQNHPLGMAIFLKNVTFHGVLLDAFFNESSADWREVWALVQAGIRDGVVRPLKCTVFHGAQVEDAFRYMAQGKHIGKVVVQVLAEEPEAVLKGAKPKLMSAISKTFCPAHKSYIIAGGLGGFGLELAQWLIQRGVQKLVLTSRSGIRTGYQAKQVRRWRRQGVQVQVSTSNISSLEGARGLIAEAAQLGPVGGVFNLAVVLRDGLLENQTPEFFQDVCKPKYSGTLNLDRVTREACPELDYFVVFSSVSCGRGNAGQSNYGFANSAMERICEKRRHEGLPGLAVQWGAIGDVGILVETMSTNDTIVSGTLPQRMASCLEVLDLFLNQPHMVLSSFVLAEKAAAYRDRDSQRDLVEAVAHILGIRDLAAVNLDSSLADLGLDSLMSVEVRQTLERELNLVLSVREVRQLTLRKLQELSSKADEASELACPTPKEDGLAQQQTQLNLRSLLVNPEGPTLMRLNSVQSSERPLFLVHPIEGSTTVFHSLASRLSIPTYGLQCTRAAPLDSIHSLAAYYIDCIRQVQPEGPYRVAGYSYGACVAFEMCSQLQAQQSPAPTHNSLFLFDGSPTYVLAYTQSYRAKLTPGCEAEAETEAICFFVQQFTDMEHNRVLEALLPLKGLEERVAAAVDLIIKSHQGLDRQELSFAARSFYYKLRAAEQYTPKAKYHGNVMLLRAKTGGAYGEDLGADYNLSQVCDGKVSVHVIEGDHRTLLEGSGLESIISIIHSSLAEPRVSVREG

O=C(CCC1CCCCC1)Nc1ccc(C(=O)c2ccncc2)cc1
IC50 [1]: 7.01 µM (not active)

COC(=O)[C@H](CCSC)NC(=O)Nc1cccc(C)c1C
EC50 [2]: > 260 µM (inactive)

O=C(COC(=O)c1cccnc1O)NCCc1ccc(Cl)cc1Cl
EC50 [3]: 0.367 µM (active)

COc1ccc(-c2[nH]ncc2CN2CCN(C3CCCCC3)C(=O)C2)cc1F
EC50 [2]: 216 µM (active)

COc1ccc(CN(C)Cc2nc3scc(-c4ccccc4)c3c(=O)[nH]2)cc1OC
EC50 [4]: > 53 µM (inactive) | IC50 [5]: > 47.1 µM (inactive)

CN1C=CC=C/C1=C(\C#N)c1nc2ccccc2[nH]1
IC50 [6]: 7.7 µM (active) | IC50 [7]: 46.4 µM (active)

COc1ccc(NC(=O)Nc2nnc(C(C)(C)C)s2)cc1
EC50 [4]: > 53 µM (inactive) | IC50 [5]: > 47.1 µM (inactive)

COCCNC(=S)N1CCc2cc(OC)c(OC)cc2C1COc1ccc(C(C)C)cc1 (stereo not given)
EC50 [4]: > 53 µM (inactive) | IC50 [5]: > 47.1 µM (inactive)

COc1ccc2c(c1)c(CC(=O)Nc1cc(C)ccc1C)c(C)n2C(=O)c1ccc(Cl)cc1
EC50 [4]: > 53 µM (inactive) | AC50 [8]: 5.69 µM (active) | AC50 [9]: 13.1 µM (active) | EC50 [10]: > 60 µM (not active) | EC50 [11]: 0.938 µM (active)

COc1ccc2cc3cc(C(=O)N4CCCC(C)C4)oc3nc2c1 (stereo not given)
IC50 [12]: 6.22 µM (active) | IC50 [13]: 5.48 µM (active)

O=C(Cn1cc([N+](=O)[O-])ccc1=O)NCc1ccc(Cl)cc1Cl
IC50 [12]: 15.8 µM (active) | IC50 [13]: 20.4 µM (inactive)

Fc1ccc(Cn2nnnc2C(c2cccs2)N2CCCCCC2)cc1 (stereo not given)
IC50 [1]: 7.88 µM (not active)

NC1=NC(=O)S/C1=C\c1ccc(O)cc1
EC50 [4]: > 53 µM (inactive) | IC50 [6]: 4.59 µM (active) | IC50 [5]: > 47.1 µM (inactive) | IC50 [7]: 15.7 µM (active)

[O-][S+](Cc1cc(Sc2ccccc2)nc(-c2ccccc2)n1)c1ccccc1 (stereo not given)
EC50 [2]: > 260 µM (inactive)

COc1ccc(OC)c(NC(=O)COC(=O)CSc2ccc(Cl)cc2)c1
IC50 [1]: 15.5 µM (not active)

O=C(Nc1ccc(Nc2ccccc2)cc1)c1cc([N+](=O)[O-])ccc1Cl
EC50 [2]: 5.63 µM (active) | IC50 [12]: 11.1 µM (active) | IC50 [13]: 14 µM (active) | AC50 [14]: 9.07 µM (active)

O=C(c1ccc(F)cc1Cl)N(Cc1ccco1)C1CCS(=O)(=O)C1 (stereo not given)
EC50 [4]: > 53 µM (inactive) | IC50 [5]: > 47.1 µM (inactive)

O=C(c1cc2cc([N+](=O)[O-])ccc2s1)N1CCCCC1
IC50 [1]: 43.1 µM (not active)

O=C(Oc1ccc(Cl)c2cccnc12)C12CC3CC(CC(C3)C1)C2
IC50 [1]: 11.9 µM (not active)

O=C(NC(=S)NCC1CCCO1)C(c1ccccc1)c1ccccc1 (stereo not given)
EC50 [4]: > 53 µM (inactive) | IC50 [5]: > 47.1 µM (inactive)

O=C(O)C1CC(=O)N(CCOc2ccccc2)C1 (stereo not given)
EC50 [4]: > 53 µM (inactive) | IC50 [5]: > 47.1 µM (inactive)

O=C(CSc1ccccn1)C12CC3CC(CC(C3)C1)C2
IC50 [1]: > 50 µM (not active)

CCc1ccc(OCc2nnc(S)n2Cc2ccccc2)cc1
IC50 [1]: 4.01 µM (not active)

O=C(NCCc1ccccc1)c1ccc(Cl)nc1
EC50 [3]: 0.155 µM (inconclusive)

COc1ccc(N2CCC(CN=C(S)Nc3c(C)cc(C)cc3C)C2)cc1 (stereo not given)
IC50 [6]: 19.1 µM (active)

O=C(CCNC(=O)c1ccc([N+](=O)[O-])cc1)NC1CCCCCC1
IC50 [12]: 8.77 µM (active) | IC50 [13]: 7.06 µM (active)

CCN(CC)c1ccc(NC(=O)C2CC(=O)N(Cc3ccccc3)C2)cc1 (stereo not given)
IC50 [6]: 14.5 µM (active)

Cn1nc(C(=O)OCC(=O)N2CCc3ccccc32)c2ccccc2c1=O
IC50 [1]: > 50 µM (not active)

CCN(CC)c1cc2nonc2c2nonc12
IC50 [12]: 15.9 µM (active) | IC50 [13]: 19.4 µM (active)

O=C(/C=C/c1ccc(O)c(O)c1)O[C@@H]1C[C@](O)(C(=O)O)C[C@@H](O)[C@H]1O
IC50 [6]: 2.86 µM (active)

O=C(CN1C(=O)/C(=C/c2cccc(Br)c2)SC1=S)NC1=NCCS1
IC50 [1]: > 50 µM (not active)

C[C@@H](NC(=O)c1[nH]cnc1C(=O)N[C@@H](CCCCNC(=O)OC(C)(C)C)C(=O)OC(C)(C)C)c1ccccc1
IC50 [1]: 8.84 µM (not active)

O=c1cc(-c2ccccc2)ss1
EC50 [4]: > 53 µM (inactive) | IC50 [5]: > 47.1 µM (inactive)

COc1ccc([N+](=O)[O-])cc1/C=N/NC(=O)/C(=C\c1cccs1)NC(=O)c1ccccc1
IC50 [12]: 2.62 µM (active) | IC50 [13]: 1.97 µM (active)

CNC(=S)N/N=C/C1=CCC2CC1C2(C)C (stereo not given)
IC50 [1]: > 50 µM (not active)

CCN(CC)C(=O)C1CCCN(c2ccc([N+](=O)[O-])cc2/C=N/NC(=O)c2ccccc2)C1 (stereo not given)
IC50 [12]: 0.645 µM (active) | IC50 [13]: 0.846 µM (active)

CN(C)/C=N/C1=NN(c2cccc(C(F)(F)F)c2)CC1
IC50 [6]: 13 µM (active) | AC50 [15]: 1.5 µM (active) | IC50 [7]: 38.3 µM (active)

C/C(=N\Nc1ccccn1)c1ccc(S(=O)(=O)NCc2ccco2)cc1
IC50 [12]: 13.7 µM (active) | IC50 [13]: 10.3 µM (active)

COc1cc(/C=N/NC(=O)c2c(-c3ccccc3)noc2C)ccc1O
IC50 [6]: 15 µM (active) | IC50 [7]: 50.2 µM (active)

CCN(CC)c1ccc(/C=N/O)cc1
IC50 [6]: 6.52 µM (active) | IC50 [7]: 20.2 µM (active)

COc1ccc(C(=O)/C=C(\C)Nc2ccc(NC(C)=O)cc2)cc1
IC50 [6]: 53.3 µM (active)
